# In patent US10502749B1, “Method for patient stratification and drug efficacy monitoring” (New York University, priority 2016, dated 2019):
# Legend:
# [1] = system: Ras, dynamin, Grin2B, and mGlur5; assay: Western blot of candidate proteins in brains of FXS and WT littermates after chronic S6K1 inhibitor treatment; format: in vivo, mouse; conditions: for Expression of candidate proteins (Ras, dynamin, Grin2B, mGlur5) in brain after treatment: FXS model mice, chronic treatment, 25 mg/kg i.p. daily for 10 days, western blot, 25 mg/kg
# Description: (§1) PF-4708671 was obtained from Sigma, Mo., USA. Littermate matched mice underwent 10 days of daily 25 mg/kg intraperitoneal injections of PF-4708671 in a vehicle consisting of saline +5% v/v of Tween-80 (Sigma). On day 10, 90 mins after the final injection mice were killed by cervical dislocation and the hippocampus was quickly dissected to yield whole hippocampal lysates. Simultaneously, trunk blood also was collected to monitor peripheral levels of proteins.
# Thus, the candidates correlate with improved behavior in the brain. We therefore evaluated if they could be measured and quantified in a peripheral tissue such as blood. Animals were treated as described above with PF-4708671, then animals were euthanized via cervical dislocation and brain tissue was collected on ice and snap frozen. Lysates were then prepared as previously described (Bhattacharya et al, 2016, incorporated herein by reference) and analyzed by western blot.
# Brain tissues were obtained immediately following euthanasia, snap frozen and homogenized in lysis buffer containing protease and phosphatase inhibitors. Lysates were then analyzed using Western blotting and the levels of specific candidates was determined using densitometry and comparing them to a known loading control such as actin, Gapdh or transferrin receptor.
# Ras = assay: Concentration levels of mGluR and Ras in mouse trunk blood after 10 days of treatment; format: in vivo
# Description: as §1
# FXS or wild type mice were treated with an S6K1 inhibitor, PF-4708671 (S6Ki) for 10 days. Concentration levels of the two markers—mGluR and Ras in mouse trunk blood treated with vehicle or the S6Ki were determined. N=3 animals per treatment per genotype were used. Statistical analyses was done using two-way ANOVA (genotype×treatment). P=0.0079 for interaction and p=0.019 for FXS±S6Ki and p=0.16 for WT±S6Ki.
# FXS model mice [2] = conditions: cited from earlier work
# FXS model mice [3] = conditions: cited from earlier work; remark: listed apart in the source
# FXS model mice [4] = conditions: cited from earlier work; remark: listed apart in the source
# FXS model mice [5] = conditions: cited from earlier work; remark: listed apart in the source
structure (smiles),measurement,setting,value
CCc1cncnc1N1CCN(Cc2nc3ccc(C(F)(F)F)cc3[nH]2)CC1 [PF-4708671],Ras in the brain of FXS mice after S6K1 inhibitor,"[1]; FXS mice, brain, FIG. 3",does not change
same,"Expression of candidate proteins (Ras, dynamin, Grin2B, mGlur5) in brain after treatment",[1],rescues expression of 3 protein candidates in brain
same,"Expression of candidate proteins (Ras, dynamin, Grin2B, mGlur5) in brain after treatment",[1]; listed as S6K1 inhibitor,3 out of 4 are statistically improved
same,"Ras level in trunk blood, greater than WT veh","Ras; FXS mice, vehicle 10 days (printed as FXS+veh)",31%
same,"Ras level in trunk blood, average (+/-SD)","Ras; FXS mice, vehicle 10 days, N=3 (printed as FXS+veh)",1.19±0.21
same,"Candidate proteins (mGluR, Ras) in FXS model mouse blood rescued by treatment","Ras; FXS model mice, trunk blood, 10 days, listed as S6K1 inhibitor",one was rescued
same,"Ras level in trunk blood, less from WT veh","Ras; WT mice, S6Ki 10 days",32%
same,"Ras level in trunk blood, average (+/-SD)","Ras; WT mice, S6Ki 10 days, N=3",0.62±0.20
same,"Aberrant social novelty behavior, rescued by S6K1i",FXS model mice [2],Both inhibitors rescued
same,"Increased protein synthesis, rescued by S6K1i",FXS model mice [3],Both inhibitors rescued
same,"Aberrant spine morphology, rescued by S6K1i",FXS model mice [4],Both inhibitors rescued
same,"Aberrant y-maze reversal learning, rescued by S6K1i",FXS model mice [5],Both inhibitors rescued
